Consider 1 compound from patent US20100104511A1, “METHODS AND COMPOSITIONS USING CHELATOR-ANTIBODY CONJUGATES” (priority 2006, published 2010).

Holding throughout (test): Apoptosis by Annexin-V-Fluos staining and flow cytometry
One assay concerns H3255 cells. Particulars: H3255, 10 μM, 72 hours.
For a further assay, the system named is H441 cells. Particulars: H441, 10 μM, 72 hours.
The subject of another assay is MDA-MB-231 cells. The settings on record: MDA-MB-231, 10 μM, 72 hours.

Method for H3255 cells: (§1) In vitro Analysis of Apoptosis. […] The cells were washed in PBS. Cell suspension was then stained with Annexin-V-Fluos (Roche Diagnostics, Mannheim, Germany) for 30 minutes before labeled cells were quantitated by flow cytometry (EpicsXL; Beckman Coulter, MarmiMiami, Fla., USA).
Method for H441 cells: as §1
Method for MDA-MB-231 cells: as §1

Turning to `COc1cc2ncnc(Nc3ccc(F)c(Cl)c3)c2cc1OCCCN1CCOCC1` [gefitinib], the “apoptosis percentage after deducting DMSO control” value in the assay with H3255 cells stood at 25.86%; with H441 cells, 8.13%; with MDA-MB-231 cells, 6.92%.
